Where a name gives a salt, the structure may show the parent alone.
biological target: T1, human IRAK4 kinase domain (aa 154-460) (Homo sapiens, UniProt Q9NWZ3); experiment: IRAK4 Enzymatic DELFIA Assay; format: biochemical; details: 0.6 mM ATP (KM); 114 pM IRAK4 kinase domain; 200 nM substrate; 5% DMSO
T1 construct: human IRAK4 kinase domain (aa 154-460; GenBank ID AF445802)
T1 sequence (Q9NWZ3 154-460): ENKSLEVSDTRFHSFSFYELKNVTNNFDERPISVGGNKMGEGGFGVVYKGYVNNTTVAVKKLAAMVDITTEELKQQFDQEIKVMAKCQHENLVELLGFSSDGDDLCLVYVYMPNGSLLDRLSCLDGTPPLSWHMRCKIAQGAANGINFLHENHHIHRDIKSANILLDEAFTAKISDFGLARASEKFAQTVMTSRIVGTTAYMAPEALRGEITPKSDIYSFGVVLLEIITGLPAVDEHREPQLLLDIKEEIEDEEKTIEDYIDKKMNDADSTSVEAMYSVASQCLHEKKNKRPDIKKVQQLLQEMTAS
Protocol: IRAK4 Enzymatic DELFIA Assay.
This is an in vitro assay to measure IRAK4 enzymatic activity utilizing the DELFIA (Dissociation-Enhanced Lanthanide Fluorescent Immunoassay, Perkin-Elmer) platform, with the human IRAK4 kinase domain (aa 154-460) construct to characterize IRAK4 inhibitor and control compounds at 0.6 mM ATP (KM). The final amount of enzyme in the assay is 114 pM IRAK4 kinase domain, final concentration of substrate is 200 nM, and final concentration of DMSO is 5%.
The test compound was solubilized in DMSO to a stock concentration of 30 mM. The dose response plates were prepared with a 2 mM primary compound concentration, and then diluted in DMSO in a four-fold series for a total of 10 data points. Compounds were prepared as a 20-fold multiple of the final in-assay concentration
To begin the assay, 45 μL of reaction mixture containing 20 mM HEPES pH=7.5, 5 mM MgCl2, 0.0025% Brij-35, […], 228 pM phosphorylated recombinant human IRAK4 kinase domain (aa 154-460; GenBank ID AF445802) were aliquoted into Ultra-Clear Polypropylene, 96-well, U-Bottom Plates (Corning Life Sciences). 5 μL of test compound from the dose-response plate was added to the reaction mixture and incubated for 15 minutes at room temperature. Then 50 μL of 20 mM HEPES pH=7.5, 5 mM MgCl2, 0.0025% Brij-35, 600 μM ATP, and 400 nM ERM-biotinylated peptide (AGAGRDKYKTLRQIR) were added to start the reaction. The reaction was incubated for 90 minutes at room temperature and stopped by the addition of 25 μL 0.5M EDTA.
100 μL of the reaction mixture was transferred to a streptavidin coated detection plate (EvenCoat Streptavidin Coated Plates, 96-Well, R&D Systems) and incubated for 30 minutes at room temperature. The plates were washed 4 times with 100 μL per well of PBS containing 0.05% Tween-20. Plates were then incubated with 50 μL per well of antibody cocktail of Anti-pERM antibody (Cell Signaling Technology) diluted 1:5000, plus Anti-Rabbit IgG EuN1 at 0.242 μg/ml (Perkin-Elmer Life Sciences) in a solution of 10 mM MOPS pH=7.5, 150 mM NaCl, 0.05% Tween-20, 0.02% NaN3, 1% BSA, 0.1% Gelatin for 45 minutes. The plates were washed 4× with 100 μL per well of PBS containing 0.05% Tween-20. Then 100 μL per well of DELFIA Enhancement Solution were added to the plate and then read on an EnVision Model 2103 using a 340 nm excitation wavelength and a 665 nm emission detection.

IC50 [µM]	SMILES
1.59	CC(C)Oc1cc2c(O[C@@H]3CCCNC3)ncc(C#N)c2cc1C(N)=O [Example 73, 4-cyano-1-[(3R)-piperidin-3-yloxy]-7-(propan-2-yloxy)isoquinoline-6-carboxamide]
3.08	CC(C)Oc1cc2c(O[C@H]3CCCNC3)nccc2cc1C(N)=O [Example 75, 1-[(3S)-piperidin-3-yloxy]-7-(propan-2-yloxy)isoquinoline-6-carboxamide]
1.3	Cc1cc(O[C@@H]2CCCNC2)c2cc(OC(C)C)c(C(N)=O)cc2n1 [Example 68, (R)-6-isopropoxy-2-methyl-4-(piperidin-3-yloxy)quinoline-7-carboxamide trifluoroacetate]
0.066	CC(C)Oc1cc2c(O[C@@H]3CCN(C(=O)CC#N)C3)nccc2cc1C(N)=O [Example 2, 1-{[(3R)-1-(cyanoacetyl)pyrrolidin-3-yl]oxy}-7-(propan-2-yloxy)isoquinoline-6-carboxamide formate]
0.162	CC(C)Oc1cc2c(O[C@@H]3CCCN(C(=O)CC#N)C3)ncc(C#N)c2cc1C(N)=O [Example 38, 4-cyano-1-{[(3R)-1-(cyanoacetyl)piperidin-3-yl]oxy}-7-(propan-2-yloxy)isoquinoline-6-carboxamide]
1.23	CC(C)Oc1cc2c(O[C@@H]3CCNC3)ccnc2cc1C(N)=O [Example 77, 6-(propan-2-yloxy)-4-[(3R)-pyrrolidin-3-yloxy]quinoline-7-carboxamide]
0.005	CC(C)Oc1cc2c(O[C@@H]3CCCN(C(=O)CC#N)C3)nccc2cc1C(N)=O [Example 36, 1-{[(3R)-1-(cyanoacetyl)piperidin-3-yl]oxy}-7-(propan-2-yloxy)isoquinoline-6-carboxamide]
0.263	CC(C)Oc1cc2c(O[C@@H]3CCCN(C(=O)C(F)(F)F)C3)ccnc2cc1C(N)=O [Example 9, 6-(propan-2-yloxy)-4-{[(3R)-1-(trifluoroacetyl)piperidin-3-yl]oxy}quinoline-7-carboxamide formate]
0.143	CC(C)Oc1cc2c(O[C@@H]3CCCN(C(=O)[C@H](C)N)C3)ccnc2cc1C(N)=O [Example 7, 4-{[(3R)-1-(L-alanyl)piperidin-3-yl]oxy}-6-(propan-2-yloxy)quinoline-7-carboxamide formate]
0.348	CC(C)Oc1cc2c(O[C@@H]3CCCN(C(=O)CN)C3)ccnc2cc1C(N)=O [Example 6, 4-{[(3R)-1-glycylpiperidin-3-yl]oxy}-6-(propan-2-yloxy)quinoline-7-carboxamide formate]
0.15	CC(C)Oc1cc2c(O[C@@H]3CCNC[C@@H]3F)ccnc2cc1C(N)=O [Example 20, 1-{[(3S.4R)-3-fluoropiperidin-4-yl]oxy}-7-(propan-2-yloxy)isoquinoline-6-carboxamide]
0.092	CC(C)Oc1cc2c(OC3CCNCC3)nccc2cc1C(N)=O [Example 60, 1-(piperidin-4-yloxy)-7-(propan-2-yloxy)isoquinoline-6-carboxamide]
0.611	CC(C)Oc1cc2c(OC3CCNC3)ccnc2cc1C(N)=O (stereo not drawn) [Example 24, 6-(propan-2-yloxy)-4-(pyrrolidin-3-yloxy)quinoline-7-carboxamide]
0.168	COCC(=O)N1CCC[C@@H](Oc2ccnc3cc(C(N)=O)c(OC(C)C)cc23)C1 [Example 8, 4-{[(3R)-1-(methoxyacetyl)piperidin-3-yl]oxy}-6-(propan-2-yloxy)quinoline-7-carboxamide formate]
0.148	Cc1cc(O[C@@H]2CCCN(C(=O)CC#N)C2)c2cc(OC(C)C)c(C(N)=O)cc2n1 [Example 29, (R)-4-((1-(2-cyanoacetyl)piperidin-3-yl)oxy)-6-isopropoxy-2-methylquinoline-7-carboxamide]
